Assay results reported in the NIST ThermoML archive (doi:10.1016/j.jct.2019.01.021).

Assay: molar heat capacity at constant pressure
Details: 101.33 kPa, Crystal 2, Small (less than 1 g) adiabatic calorimetry

N.NS(=O)(=O)O [ammonium sulfamate]
Details	molar heat capacity at constant pressure [J/K/mol]
5 K	0.003159
8.91 K	0.2228
9.15 K	0.2561
9.62 K	0.3293
9.86 K	0.3608
10 K	0.3908
10.36 K	0.4664
10.69 K	0.5138
11.01 K	0.5995
11.34 K	0.6668
11.67 K	0.7466
12.01 K	0.8356
12.34 K	0.9262
12.68 K	1.013
13.01 K	1.113
13.35 K	1.229
13.69 K	1.347
14.03 K	1.465
14.37 K	1.586
14.72 K	1.72
15 K	1.837
15.07 K	1.857
15.42 K	2
15.76 K	2.155
16.11 K	2.332
16.47 K	2.484
16.82 K	2.64
17.17 K	2.83
17.52 K	3.021
17.88 K	3.204
18.24 K	3.395
18.59 K	3.592
18.95 K	3.806
19.31 K	4.033
19.67 K	4.25
20 K	4.407
20.03 K	4.465
20.61 K	4.831
21.36 K	5.306
22.1 K	5.824
22.85 K	6.364
23.61 K	6.908
24.36 K	7.492
25 K	7.982
25.12 K	8.117
25.88 K	8.748
26.65 K	9.316
27.42 K	9.947
28.19 K	10.61
28.96 K	11.3
29.73 K	11.97
30 K	12.22
30.51 K	12.68
31.29 K	13.41
32.06 K	14.11
32.85 K	14.85
33.63 K	15.59
34.41 K	16.31
35 K	16.88
35.2 K	17.03
35.98 K	17.81
36.77 K	18.53
37.56 K	19.25
38.35 K	19.96
39.14 K	20.7
39.93 K	21.44
40 K	21.53
40.72 K	22.21
41.51 K	22.95
42.31 K	23.72
43.1 K	24.46
43.9 K	25.22
44.69 K	26
45 K	26.19
45.49 K	26.74
46.29 K	27.42
47.09 K	28.16
47.88 K	28.92
48.68 K	29.58
49.48 K	30.31
50 K	30.85
50.28 K	31.01
51.08 K	31.75
51.88 K	32.46
52.68 K	33.24
53.48 K	34.09
54.28 K	34.9
55 K	35.75
55.08 K	35.75
55.89 K	36.24
56.69 K	36.94
57.49 K	37.64
58.29 K	38.37
59.1 K	39.05
59.91 K	39.76
60 K	39.91
60.71 K	40.47
61.52 K	41.17
62.32 K	42.03
63.12 K	42.86
63.92 K	43.55
64.73 K	44.16
65 K	44.07
65.54 K	44.89
66.34 K	45.53
67.15 K	46.21
67.95 K	46.89
68.76 K	47.59
69.57 K	48.3
70 K	49.06
70.38 K	49.01
71.3 K	49.73
72.35 K	50.64
73.39 K	51.54
74.44 K	52.48
75 K	53.21
75.48 K	53.43
76.53 K	54.35
77.58 K	55.24
78.62 K	56.18
79.67 K	57.12
79.91 K	57.2
80 K	57.37
80.72 K	58.02
80.96 K	58.19
81.77 K	58.95
82.01 K	59.07
82.82 K	59.87
83.05 K	59.96
83.87 K	60.82
84.1 K	60.91
84.92 K	61.73
85.15 K	61.78
86.2 K	62.6
87.24 K	63.53
88.29 K	64.43
89.34 K	65.22
90 K	65.68
90.39 K	66.05
91.44 K	66.98
92.49 K	67.83
93.54 K	68.65
94.59 K	69.45
95.65 K	70.24
96.7 K	71.12
97.75 K	71.89
98.8 K	72.7
99.86 K	73.47
100 K	73.33
100.91 K	74.3
101.96 K	75.09
103.01 K	75.85
104.06 K	76.59
105.11 K	77.34
106.16 K	78.13
107.21 K	78.85
108.26 K	79.53
109.31 K	80.3
110 K	80.4
110.37 K	80.98
111.42 K	81.71
112.47 K	82.4
113.53 K	83.05
114.58 K	83.71
115.63 K	84.43
116.68 K	85.1
117.74 K	85.75
118.79 K	86.44
119.84 K	87.02
120 K	86.89
120.9 K	87.68
121.95 K	88.37
123 K	88.95
124.05 K	89.55
125.11 K	90.12
126.16 K	90.78
127.21 K	91.36
128.27 K	92.02
129.32 K	92.56
130 K	92.71
130.38 K	93.15
131.43 K	93.76
132.49 K	94.31
133.54 K	94.78
134.59 K	95.43
135.65 K	95.99
136.7 K	96.5
137.76 K	97.01
138.81 K	97.53
139.87 K	98.13
140 K	98.03
140.92 K	98.63
141.97 K	99.21
143.03 K	99.69
144.09 K	100.16
145.14 K	100.67
146.2 K	101.12
147.25 K	101.64
148.31 K	102.18
149.36 K	102.59
150 K	102.85
150.42 K	103.11
151.47 K	103.62
152.53 K	104.13
153.58 K	104.47
154.64 K	105.04
155.69 K	105.57
156.75 K	105.98
157.8 K	106.39
158.86 K	106.87
159.91 K	107.31
160 K	107.34
160.97 K	107.74
162.02 K	108.15
163.08 K	108.69
164.13 K	109.09
165.19 K	109.46
166.24 K	109.98
167.3 K	110.42
168.35 K	110.83
169.41 K	111.19
170 K	111.5
170.46 K	111.64
171.51 K	112.13
172.57 K	112.44
173.62 K	112.78
174.67 K	113.21
175.73 K	113.67
176.78 K	114.15
177.84 K	114.52
178.89 K	114.89
179.94 K	115.32
180 K	115.4
181 K	115.71
182.05 K	116.14
183.1 K	116.41
184.16 K	116.84
185.21 K	117.3
186.26 K	117.56
